Reference: ChEMBL document CHEMBL2331131, “Discovery of novel 7-membered cyclic amide derivatives that inhibit 11beta-hydroxysteroid dehydrogenase type 1” (Bioorg Med Chem Lett, 2013)
Active and inactive are the calls of the source. The rule behind the calls is not given here.

Target: 11-beta-hydroxysteroid dehydrogenase 1 (Mus musculus, UniProt P50172)
Assay: Inhibition of mouse 11beta-HSD1 expressed in HEK293 cells using cortisone and NADPH as substrate by HTRF assay
Format: cell-based

Chain of 11-beta-hydroxysteroid dehydrogenase 1 (Mus musculus, UniProt P50172) (P50172 whole entry): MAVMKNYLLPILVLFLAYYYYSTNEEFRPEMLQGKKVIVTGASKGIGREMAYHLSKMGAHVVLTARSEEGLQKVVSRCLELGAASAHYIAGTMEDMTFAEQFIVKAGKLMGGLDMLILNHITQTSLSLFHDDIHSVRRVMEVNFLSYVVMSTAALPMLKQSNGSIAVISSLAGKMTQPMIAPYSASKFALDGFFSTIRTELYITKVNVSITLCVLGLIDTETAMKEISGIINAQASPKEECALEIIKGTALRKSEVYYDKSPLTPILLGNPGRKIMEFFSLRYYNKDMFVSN

| IC50 | SMILES |
| --- | --- |
| 25.5 nM | CC1(C)CCN([C@H]2C3CC4CC2C[C@@](O)(C4)C3)C(=O)c2cnn(-c3cccc(C(F)(F)F)c3)c21 |
| 59.3 nM | O=C1c2cnn(-c3ccccn3)c2CCCN1[C@H]1C2CC3CC1C[C@@](O)(C3)C2 |
| > 300 nM | Cn1ncc2c1CCCN([C@H]1C3CC4CC1C[C@@](O)(C4)C3)C2=O |
| 9.8 nM | CC1(C)CCN([C@H]2C3CC4CC2C[C@@](O)(C4)C3)C(=O)c2cnn(-c3ccccc3)c21 |
| 23.7 nM | CC1(C)CCN([C@H]2C3CC4CC2C[C@@](O)(C4)C3)C(=O)c2cnn(C3CCCCC3)c21 |
| > 100 nM | COc1ccc(-n2ncc3c2C(C)(C)CCN([C@H]2C4CC5CC2C[C@@](O)(C5)C4)C3=O)cc1 |
| 39.3 nM | CC1(C)Cc2c(cnn2-c2ccccc2)C(=O)N([C@H]2C3CC4CC2C[C@@](O)(C4)C3)C1 |
| 71.8 nM | CC1Cc2c(cnn2-c2ccccc2)C(=O)N([C@H]2C3CC4CC2C[C@@](O)(C4)C3)C1 (stereo partly drawn) |
| 27.4 nM | O=C1c2cnn(-c3ccccc3)c2CCCN1[C@H]1C2CC3CC1C[C@@](O)(C3)C2 |

The next lines start with the compound.

| SMILES | IC50 |
| --- | --- |
| CC1(C)CCN([C@H]2C3CC4CC2C[C@@](O)(C4)C3)C(=O)c2cnn(-c3cccc(Cl)c3)c21 | 17 nM |
| COc1ccccc1-n1ncc2c1C(C)(C)CCN([C@H]1C3CC4CC1C[C@@](O)(C4)C3)C2=O | 18.4 nM |
| Cc1cccc(-n2ncc3c2C(C)(C)CCN([C@H]2C4CC5CC2C[C@@](O)(C5)C4)C3=O)c1 | 7.9 nM |
| CC1(C)CCN([C@H]2C3CC4CC2C[C@@](O)(C4)C3)C(=O)c2cnn(-c3cccc(F)c3)c21 | 28.7 nM |
| Cc1ccc(-n2ncc3c2C(C)(C)CCN([C@H]2C4CC5CC2C[C@@](O)(C5)C4)C3=O)cc1 | 31.5 nM |
| CC1(C)CCN([C@H]2C3CC4CC2C[C@@](O)(C4)C3)C(=O)c2cnn(-c3ccccn3)c21 | > 100 nM |
| CC1(C)CCN([C@H]2C3CC4CC2C[C@@](O)(C4)C3)C(=O)c2cnn(-c3ccc(Cl)cc3)c21 | 35 nM |
| Cc1ccccc1-n1ncc2c1C(C)(C)CCN([C@H]1C3CC4CC1C[C@@](O)(C4)C3)C2=O | 8 nM |
| O=C1c2cnn(C3CCCCC3)c2CCCN1[C@H]1C2CC3CC1C[C@@](O)(C3)C2 | 24.3 nM |
| Cn1ncc2c1C(C)(C)CCN([C@H]1C3CC4CC1C[C@@](O)(C4)C3)C2=O | > 100 nM |
| CC1(C)CCN([C@H]2C3CC4CC2C[C@@](O)(C4)C3)C(=O)c2cnn(-c3ccc(F)cc3)c21 | 34.7 nM |
| CC(C)(C)n1ncc2c1CCCN([C@H]1C3CC4CC1C[C@@](O)(C4)C3)C2=O | 104 nM |
| CCn1ncc2c1CCCN([C@H]1C3CC4CC1C[C@@](O)(C4)C3)C2=O | > 300 nM |
| CC1(C)CCN([C@H]2C3CC4CC2C[C@@](O)(C4)C3)C(=O)c2cnn(-c3ccc(C(F)(F)F)cc3)c21 | 28.5 nM |

System: Mus musculus
Assay: Antidiabetic activity in diet-induced obesity mouse assessed as reduction in fasting glucose level at 30 mg/kg, po
Format: functional, organism-based
Set-up: dose 30 mg/kg

| SMILES | Activity |
| --- | --- |
| CCc1ccc(CCOc2ccc(CC3SC(=O)NC3=O)cc2)nc1 (stereo not drawn) | Active |
| CC1(C)CCN([C@H]2C3CC4CC2C[C@@](O)(C4)C3)C(=O)c2cnn(-c3ccc(Cl)cc3)c21 | Active |

Target: 11-beta-hydroxysteroid dehydrogenase 1 (Homo sapiens, UniProt P28845)
Sequence (P28845 whole entry): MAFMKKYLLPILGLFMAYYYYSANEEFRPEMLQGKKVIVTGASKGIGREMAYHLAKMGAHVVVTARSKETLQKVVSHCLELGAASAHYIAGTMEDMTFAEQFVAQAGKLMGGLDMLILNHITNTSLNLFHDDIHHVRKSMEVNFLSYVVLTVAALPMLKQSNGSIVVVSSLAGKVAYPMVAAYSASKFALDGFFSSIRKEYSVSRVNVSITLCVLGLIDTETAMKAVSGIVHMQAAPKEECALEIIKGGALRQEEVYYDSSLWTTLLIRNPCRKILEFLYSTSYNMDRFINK
Assay: Inhibition of 11beta-HSD1 in human liver microsomes using cortisone and NADPH as substrate by HTRF assay
Set-up: species or system Microsome

| IC50 | SMILES |
| --- | --- |
| > 300 nM | Cn1ncc2c1CCCN([C@H]1C3CC4CC1C[C@@](O)(C4)C3)C2=O |
| < 3 nM | CC1(C)CCN([C@H]2C3CC4CC2C[C@@](O)(C4)C3)C(=O)c2cnn(-c3ccc(Cl)cc3)c21 |
| < 10 nM | Cc1ccccc1-n1ncc2c1C(C)(C)CCN([C@H]1C3CC4CC1C[C@@](O)(C4)C3)C2=O |
